# Assays:
# δ receptor = δ receptor (Rattus norvegicus, UniProt P33533); conditions: cited from earlier work
# Male, Swiss-Webster mice [1] = assay: Hot plate antinociceptive testing (acute, antagonist and tolerance paradigms); assay type: in vivo; conditions: for Effect of antagonist pretreatment on UMB 425 antinociception, hot plate: naloxone 1 mg/kg i.p. −30 min or nor-BNI 30 mg/kg i.p. −24 h before UMB 425 15 mg/kg s.c., 30 min; for Antinociceptive tolerance development vs. Day 1, hot plate: 15 mg/kg s.c. twice daily for five days, latencies 30 min after administration; for ED50: Mus musculus, sc
# Male, Swiss-Webster mice [2] = assay: Tail-flick antinociceptive testing (acute, antagonist and tolerance paradigms); assay type: in vivo; conditions: for Effect of antagonist pretreatment on UMB 425 antinociception, tail-flick: naloxone 1 mg/kg i.p. −30 min or nor-BNI 30 mg/kg i.p. −24 h before UMB 425 15 mg/kg s.c., 30 min; for Antinociceptive tolerance development vs. Day 1, tail-flick: 15 mg/kg s.c. twice daily for five days, latencies 30 min after administration; for ED50: Mus musculus, sc
# human μ opioid receptor [3] = biological target: T1, human μ opioid receptor (Homo sapiens, UniProt P35372); assay: biochemical; assay type: binding
# T1 construct: expressed in transfected cells; host or cells: CHO cells (membranes)
# human δ opioid receptor [4] = biological target: T2, human δ opioid receptor (Homo sapiens, UniProt P41143); assay: [35S]GTPγS functional assay, hDOR-CHO membranes (agonism; antagonism of DPDPE, Schild plot); assay type: biochemical; design: expressed in transfected cells; host or cells: CHO cells (membranes)
# human δ opioid receptor [5] = biological target: T2, human δ opioid receptor; assay: Opioid receptor binding, [3H]DPDPE competition in hDOR-CHO membranes; design: expressed in transfected cells; host or cells: CHO cells (membranes)
# human μ opioid receptor [6] = biological target: T1, human μ opioid receptor; assay: biochemical
# human κ opioid receptor [7] = biological target: T3, human κ opioid receptor (Homo sapiens, UniProt P41145); assay: [35S]GTPγS functional assay, hKOR-CHO membranes; assay type: biochemical; conditions: CHO cell membranes, n/e=no effect
# T3 construct: expressed in transfected cells; host or cells: CHO cells (membranes)
# human κ opioid receptor [8] = biological target: T3, human κ opioid receptor; assay: biochemical; assay type: binding
# human δ opioid receptor [9] = biological target: T2, human δ opioid receptor; conditions: ref (32); cited from earlier work
# [10] = 0.5 h, read-out: ED50 Hot Plate, acute treatment paradigm
# [11] = read-out: ED50 Hot Plate, Tolerance
# [12] = 0.5 h, read-out: ED50 Tail-Flick, acute treatment paradigm
# [13] = read-out: ED50 Tail-Flick, Tolerance
# [14] = acute vs. tolerance treatment paradigms
# δ receptor, sequence (P33533 whole entry): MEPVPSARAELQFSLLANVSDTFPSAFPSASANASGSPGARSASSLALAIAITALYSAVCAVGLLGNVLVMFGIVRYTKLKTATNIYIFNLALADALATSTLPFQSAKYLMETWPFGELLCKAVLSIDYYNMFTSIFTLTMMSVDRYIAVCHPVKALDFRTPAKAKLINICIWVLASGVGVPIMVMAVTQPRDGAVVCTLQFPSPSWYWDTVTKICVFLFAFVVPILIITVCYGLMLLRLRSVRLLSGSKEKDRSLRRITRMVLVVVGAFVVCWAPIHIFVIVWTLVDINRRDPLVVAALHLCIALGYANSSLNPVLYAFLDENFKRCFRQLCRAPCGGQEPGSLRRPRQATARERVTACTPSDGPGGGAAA
# T2 sequence (P41143 whole entry): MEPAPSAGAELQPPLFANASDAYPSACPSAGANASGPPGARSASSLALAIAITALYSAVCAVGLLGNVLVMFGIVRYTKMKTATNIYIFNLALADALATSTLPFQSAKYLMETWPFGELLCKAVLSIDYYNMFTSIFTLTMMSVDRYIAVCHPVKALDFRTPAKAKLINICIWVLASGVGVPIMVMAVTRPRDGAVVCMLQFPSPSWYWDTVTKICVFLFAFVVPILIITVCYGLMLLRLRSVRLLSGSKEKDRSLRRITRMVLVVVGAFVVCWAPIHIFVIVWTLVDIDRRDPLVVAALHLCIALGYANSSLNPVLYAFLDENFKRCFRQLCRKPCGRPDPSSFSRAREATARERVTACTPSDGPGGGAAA
# T3 sequence (P41145 whole entry): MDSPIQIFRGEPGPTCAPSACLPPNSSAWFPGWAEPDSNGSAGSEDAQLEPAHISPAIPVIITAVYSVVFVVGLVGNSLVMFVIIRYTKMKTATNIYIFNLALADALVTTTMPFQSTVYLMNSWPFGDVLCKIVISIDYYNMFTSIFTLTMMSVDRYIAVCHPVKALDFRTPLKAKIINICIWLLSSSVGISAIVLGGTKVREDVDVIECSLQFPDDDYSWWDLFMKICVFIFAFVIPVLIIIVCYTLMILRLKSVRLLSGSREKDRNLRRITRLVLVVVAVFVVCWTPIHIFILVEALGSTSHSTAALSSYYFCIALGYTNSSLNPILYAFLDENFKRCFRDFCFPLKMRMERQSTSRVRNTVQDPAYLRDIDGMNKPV
# T1 sequence (P35372 whole entry): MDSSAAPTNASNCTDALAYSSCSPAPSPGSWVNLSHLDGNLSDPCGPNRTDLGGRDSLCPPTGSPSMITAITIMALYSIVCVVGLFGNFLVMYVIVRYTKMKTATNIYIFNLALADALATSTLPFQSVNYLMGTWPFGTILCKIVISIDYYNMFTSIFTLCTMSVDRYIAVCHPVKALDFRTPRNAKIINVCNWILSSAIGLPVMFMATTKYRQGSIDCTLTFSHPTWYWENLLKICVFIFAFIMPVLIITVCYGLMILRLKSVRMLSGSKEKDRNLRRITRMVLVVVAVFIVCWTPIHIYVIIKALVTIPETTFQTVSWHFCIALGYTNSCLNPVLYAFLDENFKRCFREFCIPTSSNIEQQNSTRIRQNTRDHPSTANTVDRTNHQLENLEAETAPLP
smiles,measurement,setting,value
CN1CC[C@]23c4c5ccc(O)c4O[C@H]2c2[nH]c4ccccc4c2C[C@@]3(O)[C@H]1C5 [Oxymorphindole],Relative % Emax Experimental,δ receptor,0.12
"CN1CC[C@]23c4c5ccc(O)c4O[C@H]2C(=O)C2(Cc4ccccc4C2)C[C@@]3(O)[C@H]1C5 [SIOM, 7-spiroindanyloxymorphone]",Relative % Emax Experimental,δ receptor,0.18
"C=CCN1CC[C@]23c4c5ccc(O)c4O[C@H]2C(=O)CC[C@@]3(O)[C@H]1C5 [naloxone, reference compound]","Effect of antagonist pretreatment on UMB 425 antinociception, hot plate","Male, Swiss-Webster mice [1]",significantly attenuated UMB 425-mediated antinociception
same,"Effect of antagonist pretreatment on UMB 425 antinociception, tail-flick","Male, Swiss-Webster mice [2]",significantly attenuated UMB 425-mediated antinociception
"CN1CC[C@]23c4c5ccc(O)c4O[C@H]2[C@@H](O)C=C[C@H]3[C@H]1C5 [Morphine, reference compound]","Antinociceptive tolerance development vs. Day 1, hot plate","Male, Swiss-Webster mice [1]",significantly decreased antinociceptive activity on Day 4 and 5
same,ED50,"Male, Swiss-Webster mice [1]; [10]",2.73 mg/kg
same,ED50,"Male, Swiss-Webster mice [1]; [11]",21.3 mg/kg
same,"Antinociceptive tolerance development vs. Day 1, tail-flick","Male, Swiss-Webster mice [2]",significantly decreased antinociceptive activity on Day 4 and 5
same,ED50,"Male, Swiss-Webster mice [2]; [12]",6.85 mg/kg
same,ED50,"Male, Swiss-Webster mice [2]; [13]",44.1 mg/kg
"O=C1/C(=C/c2ccccc2)C[C@@]2(O)[C@H]3Cc4ccc(O)c5c4[C@@]2(CCN3CC2CC2)[C@H]1O5 [(E)-BNTX, (E)-benzylidenenaltrexone]",Relative % Emax Experimental,δ receptor,0.00
"CN1CCC23c4c5ccc(O)c4OC2(CO)C(=O)CCC3(O)C1C5 (stereo not drawn) [UMB 425, 4a,9-dihydroxy-7a-(hydroxymethyl)-3-methyl-2,3,4,4a,5,6-hexahydro-1H-4,12-methanobenzofuro[3,2-e]isoquinolin-7(7aH)-one]",Ki,human μ opioid receptor [3],3.2 ± 0.14 nM
same,Kb,human δ opioid receptor [4],759 nM
same,pA2 δ,"human δ opioid receptor [4]; Schild plot, DPDPE dose-response curves with 200 nM, 600 nM, 2 μM UMB 425",6.12
same,EC50 ± S.E.M. δ (agonist activity),"human δ opioid receptor [4]; [35S]GTPγS, CHO cell membranes, n/e=no effect",no significant agonist activity and n/e
same,Ki,human δ opioid receptor [5],208 ± 18 nM
same,δ/μ binding affinity ratio,human δ opioid receptor [5]; ratio of Ki values,65
same,% Emax μ,human μ opioid receptor [6],73±7.3%
same,EC50,human μ opioid receptor [6],35 ± 3.7 nM
same,Emax,human μ opioid receptor [6]; read-out: % Emax ± S.E.M. μ,73 ± 7.3%
same,EC50 ± S.E.M. κ (agonist activity),human κ opioid receptor [7],no significant agonist activity and n/e
same,"Antinociceptive tolerance development vs. Day 1, hot plate","Male, Swiss-Webster mice [1]",significantly decreased antinociceptive activity on Day 4 and 5
same,"Antinociceptive activity compared with morphine in tolerance paradigm, hot plate","Male, Swiss-Webster mice [1]; Day 4 and 5, 15 mg/kg s.c. twice daily",statistically greater antinociceptive activity than morphine
same,ED50,"Male, Swiss-Webster mice [1]; [10]",4.3 mg/kg
same,ED50,"Male, Swiss-Webster mice [1]; [11]",13 mg/kg
same,"Shift in ED50, Hot Plate","Male, Swiss-Webster mice [1]; [14]",3.0 fold
same,"Reduction in ED50 shift compared to morphine, hot plate","Male, Swiss-Webster mice [1]; tolerance paradigm",2.6 fold
same,"Antinociceptive tolerance development vs. Day 1, tail-flick","Male, Swiss-Webster mice [2]",n.s.
same,"Antinociceptive activity compared with morphine in tolerance paradigm, tail-flick","Male, Swiss-Webster mice [2]; Day 5, 15 mg/kg s.c. twice daily",statistically greater antinociceptive activity than morphine
same,ED50,"Male, Swiss-Webster mice [2]; [12]",8.83 mg/kg
same,ED50,"Male, Swiss-Webster mice [2]; [13]",11.6 mg/kg
same,"Shift in ED50, Tail-Flick","Male, Swiss-Webster mice [2]; [14]",1.3 fold
same,"Reduction in ED50 shift compared to morphine, tail-flick","Male, Swiss-Webster mice [2]; tolerance paradigm",4.9 fold
same,Ki,human κ opioid receptor [8],212 ± 21 nM
same,κ/μ binding affinity ratio,human κ opioid receptor [8],66
Oc1ccc2c3c1O[C@H]1c4[nH]c5ccccc5c4C[C@@]4(O)[C@@H](C2)N(CC2CC2)CC[C@]314 [Naltrindole],Relative % Emax Experimental,δ receptor,0.00
same,pA2 δ (literature),human δ opioid receptor [9],10.92
"Oc1ccc2c3c1O[C@H]1c4[nH]c5c(c4C[C@@]4(O)[C@@H](C2)N(CC2CC2)CC[C@]314)C[C@@]1(O)[C@H]2Cc3ccc(O)c4c3[C@@]1(CCN2CC1CC1)[C@H]5O4 [nor-BNI, norbinaltorphimine, reference compound]","Effect of antagonist pretreatment on UMB 425 antinociception, hot plate","Male, Swiss-Webster mice [1]",failed to significantly attenuate UMB 425-mediated antinociception
same,"Effect of antagonist pretreatment on UMB 425 antinociception, tail-flick","Male, Swiss-Webster mice [2]",failed to significantly attenuate UMB 425-mediated antinociception

# Source: US9422302B2 (priority 2013, dated 2016)
